Experimental data as given in article PMC5928494 (ACS Omega, 2018).
Where two headings read alike, the source gives them in different places.

What was measured:
[1] = tested on: ID-8 (murine ovarian cancer) cell line; test: cells; details: Mus musculus, 72 h, read-out: Cytotoxicity IC50, ID-8
[2] = tested on: MX-1 (human breast cancer) cell line; test: cells; details: 72 h, read-out: Cytotoxicity IC50, MX-1
in vitro = details: human
[3] = tested on: WI-38 (human lung fibroblast, normal) cell line
[4] = tested on: MX-1 (human breast cancer) cell line
[5] = tested on: ID-8 (murine ovarian cancer) cell line

| Molecule | IC50 [1] [nM] | IC50 [2] [nM] | IC50 (in vitro) [nM] | IC50 [3] [nM] | IC50 [4] [nM] | IC50 [5] [nM] |
| --- | --- | --- | --- | --- | --- | --- |
| CC(=O)O[C@H]1C(=O)[C@@]2(C)[C@H]([C@H](OC(=O)c3ccccc3)[C@]3(O)C[C@H](OC(=O)[C@H](O)[C@@H](NC(=O)c4ccccc4)c4ccccc4)C(C)=C1C3(C)C)[C@]1(OC(C)=O)CO[C@@H]1C[C@@H]2O [paclitaxel] | 21.2 ± 4.3 | 3.83 ± 0.59 | 175 ± 51.6 | – | – | – |
| SB-T-1214 [compound 4, reference compound] | – | – | – | 4.14 ± 0.82 | 2.9 ± 0.47 | 1.89 ± 0.3 |
